{"source": "patent US8778643B2", "about": "“Methods for increasing lipid levels and producing triacylglycerols in algae” (priority 2012, dated 2014)", "key": {"[1]": {"molecular_target": "T1, CDC25 phosphatase 25C-cat (Homo sapiens, UniProt P30307)", "T1 construct": "25C-cat", "T1 sequence (P30307 321-428 limits assumed)": "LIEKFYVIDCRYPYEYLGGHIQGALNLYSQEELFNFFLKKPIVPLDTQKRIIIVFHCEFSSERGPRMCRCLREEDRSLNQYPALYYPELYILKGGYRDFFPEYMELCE", "details": "cited from earlier work"}, "CDC25 phosphatase 25C": {"molecular_target": "CDC25 phosphatase 25C (Homo sapiens, UniProt P30307)", "sequence (P30307 whole entry)": "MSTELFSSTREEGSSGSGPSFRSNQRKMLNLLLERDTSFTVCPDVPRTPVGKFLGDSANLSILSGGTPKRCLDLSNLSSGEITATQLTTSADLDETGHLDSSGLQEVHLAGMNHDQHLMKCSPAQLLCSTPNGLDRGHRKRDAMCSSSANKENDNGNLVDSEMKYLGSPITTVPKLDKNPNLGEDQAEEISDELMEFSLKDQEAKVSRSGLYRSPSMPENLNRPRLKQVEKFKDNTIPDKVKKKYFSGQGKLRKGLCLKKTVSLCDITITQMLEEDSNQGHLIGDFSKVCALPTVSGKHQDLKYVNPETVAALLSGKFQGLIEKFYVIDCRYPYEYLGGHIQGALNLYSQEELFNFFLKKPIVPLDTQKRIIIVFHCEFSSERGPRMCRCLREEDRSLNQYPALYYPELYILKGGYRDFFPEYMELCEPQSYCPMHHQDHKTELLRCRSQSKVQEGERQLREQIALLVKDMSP", "details": "cited from earlier work"}, "CDC25 phosphatase 25A": {"molecular_target": "CDC25 phosphatase 25A (Homo sapiens, UniProt P30304)", "sequence (P30304 whole entry)": "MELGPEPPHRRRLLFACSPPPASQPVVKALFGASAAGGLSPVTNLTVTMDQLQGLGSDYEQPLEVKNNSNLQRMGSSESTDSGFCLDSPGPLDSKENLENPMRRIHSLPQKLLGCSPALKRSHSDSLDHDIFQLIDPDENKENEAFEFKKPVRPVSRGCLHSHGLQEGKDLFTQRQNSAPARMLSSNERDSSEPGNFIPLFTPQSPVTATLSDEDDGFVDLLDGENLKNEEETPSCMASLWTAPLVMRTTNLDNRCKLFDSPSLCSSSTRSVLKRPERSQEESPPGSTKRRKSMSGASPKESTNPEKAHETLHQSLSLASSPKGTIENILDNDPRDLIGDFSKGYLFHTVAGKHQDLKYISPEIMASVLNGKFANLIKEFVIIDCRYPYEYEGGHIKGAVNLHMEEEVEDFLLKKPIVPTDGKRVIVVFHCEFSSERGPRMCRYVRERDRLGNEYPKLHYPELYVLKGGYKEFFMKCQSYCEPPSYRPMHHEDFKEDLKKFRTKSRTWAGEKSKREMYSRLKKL", "details": "cited from earlier work"}, "[2]": {"system": "Phaeodactylum tricornutum", "assay": "Microplate assay: growth (absorbance 680 nm) and intracellular lipids (Nile Red fluorescence)", "format": "cell-based"}, "[3]": {"system": "antioxidant response element", "details": "cited from earlier work"}, "Nannochloris sp.": {"system": "Nannochloris sp.", "assay": "Microplate assay: growth (absorbance 680 nm) and intracellular lipids (Nile Red fluorescence)", "format": "cell-based", "details": "for Absorbance (percent increase) / Nile Red percent increase: 200 nM, initial microplate screen, relative to control; for Nile Red Fluorescence % Increase: Nannochloris sp., initial screening, p<0.05"}, "Nannochloropsis sp.": {"system": "Nannochloropsis sp.", "assay": "Microplate assay: increase of lipid production (Table 17)", "format": "cell-based", "details": "best conc. 2.4 nM", "text": "We also tested a collection with more antioxidants, kinase inhibitors, and further compounds for increase of lipid production with N. salina, P. tricornutum, N. oculata, and Nannochloropsis sp."}, "arachidonate 15-LO": {"molecular_target": "arachidonate 15-LO (Homo sapiens, UniProt P16050)", "sequence (P16050 whole entry)": "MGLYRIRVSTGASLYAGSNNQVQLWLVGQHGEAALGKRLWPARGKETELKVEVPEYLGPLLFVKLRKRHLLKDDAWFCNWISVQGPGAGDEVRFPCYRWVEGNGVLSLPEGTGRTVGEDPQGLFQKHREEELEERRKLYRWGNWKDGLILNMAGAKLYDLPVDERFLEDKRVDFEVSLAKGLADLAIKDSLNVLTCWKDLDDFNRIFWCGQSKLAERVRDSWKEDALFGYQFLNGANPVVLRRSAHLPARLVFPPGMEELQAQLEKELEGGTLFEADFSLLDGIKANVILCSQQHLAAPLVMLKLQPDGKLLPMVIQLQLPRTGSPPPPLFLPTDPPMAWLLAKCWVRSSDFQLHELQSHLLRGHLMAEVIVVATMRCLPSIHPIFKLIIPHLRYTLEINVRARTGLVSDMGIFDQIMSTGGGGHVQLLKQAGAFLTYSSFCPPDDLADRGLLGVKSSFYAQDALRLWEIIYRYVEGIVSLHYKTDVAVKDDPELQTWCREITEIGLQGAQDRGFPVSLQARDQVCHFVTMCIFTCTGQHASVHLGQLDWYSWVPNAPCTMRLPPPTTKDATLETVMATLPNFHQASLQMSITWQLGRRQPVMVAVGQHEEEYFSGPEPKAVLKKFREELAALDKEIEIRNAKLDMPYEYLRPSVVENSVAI", "details": "cited from earlier work"}, "CDK6": {"molecular_target": "CDK6 (Homo sapiens, UniProt Q00534)", "sequence (Q00534 whole entry, looked up)": "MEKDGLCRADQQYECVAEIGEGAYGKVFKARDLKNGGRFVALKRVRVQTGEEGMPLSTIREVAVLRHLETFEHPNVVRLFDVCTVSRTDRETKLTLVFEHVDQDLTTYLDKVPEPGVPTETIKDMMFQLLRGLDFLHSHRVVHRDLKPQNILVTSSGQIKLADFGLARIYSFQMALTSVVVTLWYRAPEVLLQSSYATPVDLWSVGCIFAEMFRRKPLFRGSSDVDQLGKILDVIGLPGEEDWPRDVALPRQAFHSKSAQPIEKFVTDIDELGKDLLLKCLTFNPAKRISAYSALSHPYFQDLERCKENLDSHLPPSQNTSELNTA", "details": "cited from earlier work"}, "protein phosphatase 2A": {"molecular_target": "protein phosphatase 2A (Homo sapiens, UniProt P67775)", "sequence (P67775 whole entry)": "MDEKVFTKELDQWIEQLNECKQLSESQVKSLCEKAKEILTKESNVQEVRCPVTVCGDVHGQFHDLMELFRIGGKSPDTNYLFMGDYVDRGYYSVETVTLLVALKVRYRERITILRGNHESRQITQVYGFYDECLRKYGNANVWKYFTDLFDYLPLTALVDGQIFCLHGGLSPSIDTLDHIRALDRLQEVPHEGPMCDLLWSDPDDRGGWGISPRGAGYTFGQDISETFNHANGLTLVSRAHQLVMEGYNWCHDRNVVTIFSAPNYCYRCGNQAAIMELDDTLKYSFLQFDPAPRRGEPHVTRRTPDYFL", "details": "cited from earlier work"}, "Nannochloropsis oculata": {"system": "Nannochloropsis oculata", "details": "55.2-165.6 nM"}, "[4]": {"details": "200 nM, initial microplate screen, relative to control"}}, "note": "Where two headings read alike, the source gives them in different places.", "data": [{"compound": "6-Chloro-7-(2-morpholin-4-yl-ethylamino)-quinoline-5,8-dione [CDC25 Phosphatase Inhibitor I]", "values": [{"measurement": "IC50", "setting": "[1]", "result": 4.6, "unit": "µM"}, {"measurement": "IC50", "setting": "CDC25 phosphatase 25C", "result": 5.4, "unit": "µM"}, {"measurement": "IC50", "setting": "CDC25 phosphatase 25A", "result": 2400, "unit": "nM"}]}, {"compound": "CC1=CC(=O)CC(C)(C)[C@@]1(O)/C=C/C(C)=C\\C(=O)O", "note": "[Abscisic acid, (2Z,4E)-5-[(1S)-1-hydroxy-2,6,6-trimethyl-4-oxocyclohex-2-en-1-yl]-3-methylpenta-2,4-dienoic acid]", "values": [{"measurement": "Absorbance (percent increase)", "setting": "[2]; [4]", "result": "−1.2", "unit": "%"}, {"measurement": "Nile Red percent increase", "setting": "[2]; [4]", "result": 87.0, "unit": "%"}, {"measurement": "Nile Red Fluorescence % Increase", "setting": "[2]; P. tricornutum, compounds tested at 200 nM, initial screening, p<0.05", "result": 87.0, "unit": "%"}, {"measurement": "Nile Red Fluorescence % Increase", "setting": "Nannochloropsis salina; N. salina, compounds tested at 20 μM, initial screening, p<0.05", "result": 34.5, "unit": "%"}, {"measurement": "agonist of antioxidant response element at", "setting": "[3]", "result": "element at 37.6 μM)"}, {"measurement": "Absorbance (percent increase)", "setting": "Nannochloris sp.", "result": "−2.6", "unit": "%"}, {"measurement": "Nile Red percent increase", "setting": "Nannochloris sp.", "result": 61.6, "unit": "%"}, {"measurement": "Nile Red Fluorescence % Increase", "setting": "Nannochloris sp.; compounds tested at 200 nM", "result": 90.8, "unit": "%"}]}, {"compound": "CC(=O)Nc1ccc(O)cc1", "note": "[Acetaminophen, N-(4-hydroxyphenyl)ethanamide]", "values": [{"measurement": "% Inc", "setting": "Nannochloropsis sp.", "result": 13.11, "unit": "%"}, {"measurement": "IC50", "setting": "arachidonate 15-LO", "result": 28.4, "unit": "µM"}, {"measurement": "Absorbance (percent increase)", "setting": "Nannochloris sp.", "result": "−6.7", "unit": "%"}, {"measurement": "Nile Red percent increase", "setting": "Nannochloris sp.", "result": 68.9, "unit": "%"}, {"measurement": "Nile Red Fluorescence % Increase", "setting": "Nannochloris sp.; compounds tested at 20 μM", "result": 89.7, "unit": "%"}]}, {"compound": "CCNc1cc(N[C@H]2CC[C@H](O)CC2)nc(Nc2ccc3c(ccn3Cc3ccccc3)c2)n1", "note": "[CDK4/6 Inhibitor 4, trans-4-((6-(ethylamino)-2-((1-(phenylmethyl)-1H-indol-5-yl)amino)-4-pyrimidinyl)amino)-cyclohexanol]", "values": [{"measurement": "% Increase based on Nile Red Fluorescence Intensity", "setting": "[2]; P. tricornutum, 10 μM, DMSO delivery, added t=day 0", "result": 50, "unit": "%"}, {"measurement": "IC50", "setting": "CDK6", "result": 5.6, "unit": "µM"}]}, {"compound": "CC12C(=O)OC(=O)C1(C)C1CCC2O1", "note": "(stereo not drawn) [Cantharidin, 2,6-Dimethyl-4,10-dioxatricyclo-[5.2.1.0^2,6]decane-3,5-dione]", "values": [{"measurement": "% increase (lipid production)", "setting": "[2]; 0.0252-0.0757 nM", "result": "9-35%"}, {"measurement": "% increase (lipid production)", "setting": "[2]; 0.0252-165.6 nM (H2O)", "result": "0.17-168.19%"}, {"measurement": "% increase (lipid production)", "setting": "Nannochloropsis salina; 0.0252-0.681 nM", "result": "1-15%"}, {"measurement": "% increase (lipid production)", "setting": "Nannochloropsis salina; 0.0252-165 nM (H2O)", "result": "7-87%"}, {"measurement": "IC50", "setting": "protein phosphatase 2A", "result": 40, "unit": "nM"}, {"measurement": "% increase (lipid production)", "setting": "Nannochloropsis oculata", "result": "11-54%"}, {"measurement": "Absorbance (percent increase)", "setting": "Nannochloris sp.", "result": "−6.5", "unit": "%"}, {"measurement": "Nile Red percent increase", "setting": "Nannochloris sp.", "result": 64.5, "unit": "%"}, {"measurement": "Nile Red Fluorescence % Increase", "setting": "Nannochloris sp.; compounds tested at 20 μM", "result": 22.9, "unit": "%"}]}]}
